The text below walks through data of patent US20020001841A1, “CONTINUOUS T-CELL LINES” (priority 1998, published 2002).

“And” between values parts separate entries of the source, which are not always exact repeats. Equal values may be shown once.

Test [1] relates to gut T-cell cultures from patients with Crohn's disease. In kind it is cell-based, human.
A further test has as its system transmembrane TNFα. The note with it: murine SP2/O myeloma cells with cleavage resistant transmembrane TNFα; Scatchard analyses; cited from earlier work.
Test [2] deals with gut T-cell cultures from patients with Crohn's disease. In kind it is cell-based, human. This is another data set of the same source.
The test system of test [3] is activated gut T-lymphocytes in Crohn's disease. In kind it is cell-based, human.

Sequence of transmembrane TNFα (P01375 88-233 limits assumed): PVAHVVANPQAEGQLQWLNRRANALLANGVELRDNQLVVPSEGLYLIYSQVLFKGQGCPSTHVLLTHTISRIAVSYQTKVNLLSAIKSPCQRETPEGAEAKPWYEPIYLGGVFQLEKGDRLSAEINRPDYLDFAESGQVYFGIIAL

Take “Infliximab: chimeric TNFα antibody with high avidity for transmembrane TNFα, obtained from Centocor”: in test [1], the “Proliferation rate (in words)” value is listed as “did not change the proliferation rate”. The “Infliximab molecules bound per cell” value in the test with transmembrane TNFα was “about 35000 molecules per cell”. Moreover, in test [2], the “Amount of propidium iodide and Annexin-FITC positive cells compared with SEA alone” value is “did not increase”; the “Apoptosis (in words)” value is “did not induce any apoptosis”. In addition, in test [3], the “24 hour production of IFNγ (in words)” value was “reduction”; the “Production of IFNγ and TNFα (in words)” value was “reduced”; the “Reduction of IFNγ production by Infliximab” value is 68% and 43% and 49% and 56%; the “Reduction of TNFα production by Infliximab” value amounted to 97%.
